pIC50: −log10 of the molar value.
Tested on: 883617-216-R-J1-PDC complex spheroids, growth, % test/control
Assay: Anticancer human tumor 883617-216-R-J1-PDC patient-derived bladder carcinoma cell line growth inhibition [AhR]
Conditions: for pIC50: curve of first compound; for viability, T/C: stronger effect = lower value
Summary of the method: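 Agents were dosed in half-log steps down from roughly clinical Cmax, or from 10 microM where Cmax was unknown, alone and with AhR antagonists. Read-out: percent test/control growth of tumor spheroids containing HUVEC and MSC stromal cells.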
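Also: exposure lasted 7 days after dosing on day 3 of spheroid growth.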

CC1COCCN1c1cc(C2(S(C)(=N)=O)CC2)nc(-c2ccnc3[nH]ccc23)n1 (stereo not given) + Cc1cncc(-c2nc(NCCc3c[nH]c4ccccc34)c3ncn(C(C)C)c3n2)c1
pIC50 (second compound 0.1 µM): < 5.00
pIC50 (second compound 0.316 µM): < 5.00
pIC50 (second compound 1 µM): < 5.00
pIC50 (second compound 3.16 µM): < 5.00
pIC50 (second compound 10 µM): 5.92
viability, T/C (second compound 0.1 µM, first compound 0.0316 µM): 88.1%
viability, T/C (second compound 0.1 µM, first compound 0.1 µM): 90.5%
viability, T/C (second compound 0.1 µM, first compound 0.316 µM): 84.3%
viability, T/C (second compound 0.1 µM, first compound 1 µM): 84.8%
viability, T/C (second compound 0.1 µM, first compound 3.16 µM): 78.3%
viability, T/C (second compound 0.1 µM, first compound 10 µM): 58.2%
viability, T/C (second compound 0.316 µM, first compound 0.0316 µM): 92.4%
viability, T/C (second compound 0.316 µM, first compound 0.1 µM): 95.6%
viability, T/C (second compound 0.316 µM, first compound 0.316 µM): 92.3%
viability, T/C (second compound 0.316 µM, first compound 1 µM): 82.1%
viability, T/C (second compound 0.316 µM, first compound 3.16 µM): 69.3%
viability, T/C (second compound 0.316 µM, first compound 10 µM): 54.3%
viability, T/C (second compound 1 µM, first compound 0.0316 µM): 95.8%
viability, T/C (second compound 1 µM, first compound 0.1 µM): 100%
viability, T/C (second compound 1 µM, first compound 0.316 µM): 100%
viability, T/C (second compound 1 µM, first compound 1 µM): 94.9%
viability, T/C (second compound 1 µM, first compound 3.16 µM): 81.7%
viability, T/C (second compound 1 µM, first compound 10 µM): 62.9%
viability, T/C (second compound 3.16 µM, first compound 0.0316 µM): 103%
viability, T/C (second compound 3.16 µM, first compound 0.1 µM): 113%
viability, T/C (second compound 3.16 µM, first compound 0.316 µM): 100%
viability, T/C (second compound 3.16 µM, first compound 1 µM): 94.2%
viability, T/C (second compound 3.16 µM, first compound 3.16 µM): 85%
viability, T/C (second compound 3.16 µM, first compound 10 µM): 54.8%
viability, T/C (second compound 10 µM, first compound 0.0316 µM): 57%
viability, T/C (second compound 10 µM, first compound 0.1 µM): 50.1%
viability, T/C (second compound 10 µM, first compound 0.316 µM): 59.6%
viability, T/C (second compound 10 µM, first compound 1 µM): 50.6%
viability, T/C (second compound 10 µM, first compound 3.16 µM): 42.7%
viability, T/C (second compound 10 µM, first compound 10 µM): 29.8%

CCN(c1cc(-c2ccc(CN3CCOCC3)cc2)cc(C(=O)NCc2c(C)cc(C)[nH]c2=O)c1C)C1CCOCC1 + Cc1ccccc1N=Nc1ccc(NC(=O)c2ccnn2C)c(C)c1
pIC50 (second compound 0.1 µM): < 5.52
pIC50 (second compound 0.316 µM): < 5.52
pIC50 (second compound 1 µM): < 5.52
pIC50 (second compound 3.16 µM): < 5.52
pIC50 (second compound 10 µM): < 5.52
viability, T/C (second compound 0.1 µM, first compound 0.00949 µM): 88.3%
viability, T/C (second compound 0.1 µM, first compound 0.03 µM): 100%
viability, T/C (second compound 0.1 µM, first compound 0.0949 µM): 88.5%
viability, T/C (second compound 0.1 µM, first compound 0.3 µM): 91.7%
viability, T/C (second compound 0.1 µM, first compound 0.949 µM): 80.3%
viability, T/C (second compound 0.1 µM, first compound 3 µM): 84.3%
viability, T/C (second compound 0.316 µM, first compound 0.00949 µM): 83.3%
viability, T/C (second compound 0.316 µM, first compound 0.03 µM): 91.5%
viability, T/C (second compound 0.316 µM, first compound 0.0949 µM): 86.4%
viability, T/C (second compound 0.316 µM, first compound 0.3 µM): 85.3%
viability, T/C (second compound 0.316 µM, first compound 0.949 µM): 88.3%
viability, T/C (second compound 0.316 µM, first compound 3 µM): 86.1%
viability, T/C (second compound 1 µM, first compound 0.00949 µM): 80.7%
viability, T/C (second compound 1 µM, first compound 0.03 µM): 82.2%
viability, T/C (second compound 1 µM, first compound 0.0949 µM): 84%
viability, T/C (second compound 1 µM, first compound 0.3 µM): 78.3%
viability, T/C (second compound 1 µM, first compound 0.949 µM): 82.8%
viability, T/C (second compound 1 µM, first compound 3 µM): 96.4%
viability, T/C (second compound 3.16 µM, first compound 0.00949 µM): 75.8%
viability, T/C (second compound 3.16 µM, first compound 0.03 µM): 84.5%
viability, T/C (second compound 3.16 µM, first compound 0.0949 µM): 83.4%
viability, T/C (second compound 3.16 µM, first compound 0.3 µM): 85.5%
viability, T/C (second compound 3.16 µM, first compound 0.949 µM): 88.4%
viability, T/C (second compound 3.16 µM, first compound 3 µM): 79.2%
viability, T/C (second compound 10 µM, first compound 0.00949 µM): 80%
viability, T/C (second compound 10 µM, first compound 0.03 µM): 86.1%
viability, T/C (second compound 10 µM, first compound 0.0949 µM): 75.6%
viability, T/C (second compound 10 µM, first compound 0.3 µM): 75.2%
viability, T/C (second compound 10 µM, first compound 0.949 µM): 77.6%
viability, T/C (second compound 10 µM, first compound 3 µM): 81.4%

Reference: PubChem BioAssay AID1919004 (Molecular Pharmacology Branch, DTP, NCI, 2023)
